Values of other authors, collected in US20240173460A1, “STORAGE SOLUTIONS FOR MAINTAINING OF AXONAL VIABILITY” (Board of Regents, The University of Texas System, priority 2022, published 2024).

For `[Cl-].[K+]` [Potassium Chloride], the solubility in water is given as “freely soluble in water”.
